Assay results published in patent US11059794B2, “Heterocyclic compounds useful as dual ATX/CA inhibitors” (Hoffmann-La Roche Inc., priority 2017, dated 2021).

Columns and labels:
ATX (human His-tagged) = ATX (human His-tagged) (Homo sapiens (Human), UniProt Q13822); experiment: Human ATX enzyme inhibition assay (fluorescence quenching, MR121 substrate); format: biochemical; settings: 30 nM ATX, 1 μM MR121 substrate, 30° C.
[1] = biological target: Human carbonic anhydrase II (hCA-II) (Homo sapiens (Human), UniProt P00918); experiment: Human carbonic anhydrase-II inhibition assay (absorbance, 4-nitrophenyl acetate substrate); format: biochemical; settings: 8 nM hCA II, 2.5 mM 4-NPA, absorbance 340 nm, 1 hour room temperature; read-out: CA-II IC50

Row | IC50 (ATX (human His-tagged)) | IC50 [1] | SMILES
1 | 3 nM | – | Cc1nnn(Cc2cc(OC(F)F)ccc2CCC(=O)N2CCC(CC[S+]([O-])c3ccc(S(N)(=O)=O)c(F)c3F)CC2)n1 (stereo not shown) [Example 6.42, 4-[2-[1-[3-[4-(difluoromethoxy)-2-[(5-methyltetrazol-2-yl)methyl]phenyl]propanoyl]piperidin-4-yl]ethylsulfinyl]-2,3-difluorobenzenesulfonamide]
2 | 7 nM | – | Cc1nnn(Cc2cc(OC(F)F)ccc2CCC(=O)N2CCC(CC[S+]([O-])c3ncc(S(N)(=O)=O)s3)CC2)n1 (stereo not shown) [Example 6.44, 2-[2-[1-[3-[4-(difluoromethoxy)-2-[(5-methyltetrazol-2-yl)methyl]phenyl]propanoyl]piperidin-4-yl]ethylsulfinyl]-1,3-thiazole-5-sulfonamide]
3 | 7 nM | 15.5 nM | NS(=O)(=O)c1ccc(CN2CCN(C(=O)c3cc(OCC4CCOCC4)nc(C4CC4)c3)CC2)c(F)c1 [Example 2.02, 4-[[4-[2-cyclopropyl-6-(oxan-4-ylmethoxy)pyridine-4-carbonyl]piperazin-1-yl]methyl]-3-fluorobenzenesulfonamide]
4 | 4 nM | 14 nM | Cc1nnn(Cc2cc(C(F)(F)F)ccc2CCC(=O)N2CCC(CC[S+]([O-])c3ncc(S(N)(=O)=O)s3)CC2)n1 (stereo not shown) [Example 6.06, 2-[2-[1-[3-[2-[(5-methyltetrazol-2-yl)methyl]-4-(trifluoromethyl)phenyl]propanoyl]piperidin-4-yl]ethylsulfinyl]-1,3-thiazole-5-sulfonamide]
5 | 6 nM | – | Cc1nnn(Cc2cc(C(F)(F)F)ccc2CCC(=O)N2CCC(CC[S+]([O-])c3ccc(S(N)(=O)=O)c(F)c3F)CC2)n1 (stereo not shown) [Example 6.43, 2,3-difluoro-4-[2-[1-[3-[2-[(5-methyltetrazol-2-yl)methyl]-4-(trifluoromethyl)phenyl]propanoyl]piperidin-4-yl]ethylsulfinyl]benzenesulfonamide]
6 | 8 nM | – | Cc1nnn(Cc2cc(C(F)(F)F)ccc2COC(=O)N2CCC(S(=O)(=O)c3ccc(S(N)(=O)=O)cc3F)CC2)n1 [Example 1.04, [2-[(5-methyltetrazol-2-yl)methyl]-4-(trifluoromethyl)phenyl]methyl 4-(2-fluoro-4-sulfamoylphenyl)sulfonylpiperidine-1-carboxylate]
7 | 27 nM | – | Cc1nnn(Cc2cc(C(F)(F)F)ccc2CCC(=O)N2CCN(Cc3ccc(S(N)(=O)=O)cc3)CC2)n1 [Example 9.00, 4-[[4-[3-[2-[(5-Methyltetrazol-2-yl)methyl]-4-(trifluoromethyl)phenyl]propanoyl]piperazin-1-yl]methyl]benzenesulfonamide]
8 | 73 nM | – | Cc1nnn(Cc2cc(Cl)cnc2COC(=O)N2CCC(S(=O)(=O)c3ccc(S(N)(=O)=O)cc3F)CC2)n1 [Example 1.03, [5-chloro-3-[(5-methyltetrazol-2-yl)methyl]pyridin-2-yl]methyl 4-(2-fluoro-4-sulfamoylphenyl)sulfonylpiperidine-1-carboxylate]
